According to patent publication US20240150339A1, “Compounds and Their Use as PDE4 Activators” (Mironid Limited, priority 2021, published 2024):

Assays:
PDE4C3 = target: T1, PDE4C3 (Homo sapiens, UniProt Q08493); test: PDE assay, activation of full-length human PDE4C3 long form ([3H]cAMP radio-assay); type: biochemical; details: 30 μM test compound; mean % increase in counts over basal activity
T1 construct: Using Full-Length Human PDE4 Isoforms: Long Forms PDE4D5, PDE4C3, PDE4B1 and Short Form PDE4B2; made in house; host or cells: HEK 293 transfected with pcDNA3.1 or pDEST PDE4 expression vector; cytosol fraction of the lysate by analogy to PDE4D5
Description: (§1) Experiment 1: Measurement of Modulation of Enzyme Activity by PDE4 Long Form Activators of the Present Invention Using Full-Length Human PDE4 Isoforms: Long Forms PDE4D5, PDE4C3, PDE4B1 and Short Form PDE4B2
(§2) (Marchmont, R. J. and Houslay, M. D. Biochem. J. 187: 381-92, 1980)
For transient transfection of exogenous PDE4 long isoforms, HEK 293 cells were transfected with pcDNA3.1 or pDEST™ PDE4 expression vectors using Lipofectamine LTX/Plus reagent (Invitrogen) as outlined by the manufacturer. […]
(§3) HEK-PDE4D5 cells were seeded out in 100 mm plates and incubated at 37° C. in an atmosphere of 5% CO2, 95% air. Cell lysates were prepared using KHEM buffer [50 mM KCl, 10 mM EGTA, 50 mM HEPES (pH 7.2), 1.92 mM MgCl2].
(§4) To prepare the cell lysates, the 100 mm plates containing the cells were placed on ice and washed with ice-cold PBS (phosphate buffered saline, pH 7.4). KHEM buffer (500 μl) was added to the cells. Cells were then scraped off the plate and triturated using a needle (BD Microlance™ 0.8, 40 mm). The lysed cells were then centrifuged at 2000 rpm for 10 minutes to remove cell debris and the supernatant (cell lysate containing recombinant PDE4D5) was transferred to a fresh tube and kept on ice.
(§5) The cell lysate containing recombinant PDE4D5 was transferred into a centrifuge tube and placed into an ultracentrifuge (BECKMAN COULTER) and spun at high speed (100,000 g) for 30 minutes at 4° C. The cytosol fraction was then collected and its protein amount determined using a BCA protein assay.
(§6) PDE assays were performed in thin walled V-bottomed 96-well plates. The assays were performed at a final concentration of 10 mM Tris/5 mM MgCl2 μlus PDE4D5 cell lysate cytosol fraction, containing over-expressed PDE4D5, with and without test compound. The lysate/compound mix were incubated together for 15 min at room temperature on an orbital shaker prior to addition of [^3H] cAMP (final concentration 1 μM [^3H] cAMP; Perkin Elmer) to a final volume of 50 μl per reaction. The reactions were then incubated for 10 minutes at 30° C., terminated by heating for 2 min at 95° C. and allowed to cool. Snake venom (12.5 μl of 1 mg/ml; Crotalus atrox, Sigma) was then added and the plates were agitated and incubated for a further 15 minutes at 30° C. Dowex ion exchange resin (Sigma, chloride form, 200-400 mesh; 200 μl; prepared as a 1:1 Dowex: water stock, thoroughly re-suspended and diluted 2:1 with ethanol) was then added to each well and the plates incubated for 15 min at room temperature on an orbital shaker ensuring sufficient agitation for resin suspension (550 RPM). The reaction mixture was then transferred to a 96 well filter plate (Millipore; […] pore size) and filtered into a receiving 96-well plate to remove the dowex suspension. 30 μL of the filtered solution was then transferred to the wells of an Opti-plate (Perkin Elmer) 96 well assay plate and 120 μl of Microscint 40 scintillation fluid was added. The plate was then placed on an orbital shaker for 10 min at high speed (900 RPM) to mix the sample with scintillation fluid prior to quantitation using a plate based scintillation counter (Top-Count).
(§7) The % increase in counts in the presence of test compound at a particular concentration indicates the % increase in enzyme activity at that concentration.

m-IMCD3 cells = test: Inhibition of PGE2-stimulated in vitro cyst formation in 3D culture of m-IMCD3 cells; type: cell-based, mouse; details: Mus musculus, mIMCD3, 144 h; 10 μM test compound; mean cyst area (%) compared to 100% for (DMSO + PGE2) and 0% for DMSO control; 100 nM PGE2; 6 days; read-out: % Cyst area after incubation with 10 μM test compound
In short: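 Mouse m-IMCD3 cells grown in 3D collagen I/Matrigel gels. From 18-24 h after plating, compound (0.1% DMSO) plus 100 nM PGE2 were added and replenished at 2-3 days. After 6 days, imaging gave mean cyst area, scaled to 100% for DMSO+PGE2 and 0% for DMSO alone.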

PDE4D5 = target: T2, PDE4D5 (Homo sapiens, UniProt Q08499); test: PDE assay, activation of full-length human PDE4D5 long form ([3H]cAMP radio-assay); type: biochemical; details: 30 μM test compound; mean % increase in counts over basal activity
T2 construct: Using Full-Length Human PDE4 Isoforms: Long Forms PDE4D5, PDE4C3, PDE4B1 and Short Form PDE4B2; made in house; cytosol fraction of the cell lysate, not purified
Description: as §1, §2
(§8) For transient transfection of exogenous PDE4 long isoforms, HEK 293 cells were transfected with pcDNA3.1 or pDEST™ PDE4 expression vectors using Lipofectamine LTX/Plus reagent (Invitrogen) as outlined by the manufacturer.
(§9) Where stable cell lines were generated the clonal isolates were expanded to obtain cell lines that stably expressed the full-length human PDE4 long isoforms and the full length human PDE4B2 short isoform. These were called the HEK-PDE4D5, HEK-PDE4B1 and HEK-PDE4B2 cell lines, respectively.
as §3, §4, §5, §6, §7

PDE4B2 = target: T3, PDE4B2 (Homo sapiens, UniProt Q07343); test: PDE assay, activity of full-length human PDE4B2 short form ([3H]cAMP radio-assay); type: biochemical; details: 30 μM test compound; mean % increase in counts over basal activity
T3 construct: the full length human PDE4B2 short isoform; made in house; cytosol fraction of the lysate by analogy to PDE4D5
Description: as §1, §2, §8, §9, §3, §4, §5, §6, §7

T1 sequence (Q08493 1-680 isoform Q08493-3): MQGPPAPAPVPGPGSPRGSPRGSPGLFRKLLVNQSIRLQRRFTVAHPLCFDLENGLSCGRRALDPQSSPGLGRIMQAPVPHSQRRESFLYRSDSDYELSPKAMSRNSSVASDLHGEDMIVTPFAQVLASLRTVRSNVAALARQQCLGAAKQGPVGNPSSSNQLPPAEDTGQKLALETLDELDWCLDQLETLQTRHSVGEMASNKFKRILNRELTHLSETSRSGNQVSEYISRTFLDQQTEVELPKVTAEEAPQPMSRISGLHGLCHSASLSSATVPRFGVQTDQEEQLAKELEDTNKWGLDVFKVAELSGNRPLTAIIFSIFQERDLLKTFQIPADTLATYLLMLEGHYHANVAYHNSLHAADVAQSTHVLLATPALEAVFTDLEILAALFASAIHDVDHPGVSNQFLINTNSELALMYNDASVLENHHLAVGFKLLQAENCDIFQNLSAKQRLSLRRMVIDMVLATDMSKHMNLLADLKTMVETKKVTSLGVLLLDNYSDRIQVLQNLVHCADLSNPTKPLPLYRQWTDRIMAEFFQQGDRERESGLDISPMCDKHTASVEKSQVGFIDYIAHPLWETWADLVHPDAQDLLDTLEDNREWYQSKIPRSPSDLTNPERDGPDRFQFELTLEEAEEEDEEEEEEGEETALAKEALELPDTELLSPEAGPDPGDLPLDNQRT
T2 sequence (Q08499 1-745 isoform Q08499-6): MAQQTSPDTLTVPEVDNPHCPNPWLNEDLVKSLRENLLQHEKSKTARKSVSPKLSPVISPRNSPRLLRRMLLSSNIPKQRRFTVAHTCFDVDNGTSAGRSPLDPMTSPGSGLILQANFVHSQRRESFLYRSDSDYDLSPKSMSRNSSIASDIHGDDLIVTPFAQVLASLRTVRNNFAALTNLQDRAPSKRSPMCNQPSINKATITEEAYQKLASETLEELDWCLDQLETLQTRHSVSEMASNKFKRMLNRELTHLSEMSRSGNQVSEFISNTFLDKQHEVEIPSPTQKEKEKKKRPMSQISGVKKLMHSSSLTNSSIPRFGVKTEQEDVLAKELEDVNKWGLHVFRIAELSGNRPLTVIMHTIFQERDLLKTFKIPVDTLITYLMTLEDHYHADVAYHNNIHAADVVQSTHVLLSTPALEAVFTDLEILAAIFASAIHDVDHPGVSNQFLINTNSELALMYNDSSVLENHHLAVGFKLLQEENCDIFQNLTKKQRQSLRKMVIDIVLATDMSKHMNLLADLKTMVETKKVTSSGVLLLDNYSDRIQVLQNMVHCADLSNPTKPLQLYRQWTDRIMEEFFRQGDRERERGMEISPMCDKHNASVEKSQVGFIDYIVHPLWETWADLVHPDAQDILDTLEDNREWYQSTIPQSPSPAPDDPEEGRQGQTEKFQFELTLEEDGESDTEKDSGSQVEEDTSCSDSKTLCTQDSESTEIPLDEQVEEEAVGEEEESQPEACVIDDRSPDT
T3 sequence (Q07343 1-564 isoform Q07343-2): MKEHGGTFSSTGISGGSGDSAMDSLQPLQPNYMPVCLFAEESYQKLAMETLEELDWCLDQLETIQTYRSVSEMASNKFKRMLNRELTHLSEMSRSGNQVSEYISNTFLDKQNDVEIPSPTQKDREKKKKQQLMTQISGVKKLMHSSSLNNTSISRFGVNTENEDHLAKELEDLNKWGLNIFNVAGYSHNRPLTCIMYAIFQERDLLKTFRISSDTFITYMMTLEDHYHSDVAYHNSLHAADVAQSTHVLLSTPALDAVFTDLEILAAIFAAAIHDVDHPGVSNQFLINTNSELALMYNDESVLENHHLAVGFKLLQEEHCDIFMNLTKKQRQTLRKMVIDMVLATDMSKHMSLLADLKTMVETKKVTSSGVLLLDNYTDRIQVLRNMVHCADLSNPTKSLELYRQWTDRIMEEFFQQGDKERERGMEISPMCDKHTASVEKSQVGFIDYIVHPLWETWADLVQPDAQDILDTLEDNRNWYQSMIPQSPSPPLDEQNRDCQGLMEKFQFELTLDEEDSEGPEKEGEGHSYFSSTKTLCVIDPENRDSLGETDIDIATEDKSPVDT

Compound | activation at 30 µM (PDE4C3) [%] | activity at 10 µM (m-IMCD3 cells) [%] | activation at 30 µM (PDE4D5) [%] | % increase in PDE4B2 activity at 30 μM* (PDE4B2) [%]
Cc1ncccc1-c1nc2ccc(C(=O)N[C@H]3CCCc4ccccc43)cc2s1 [Example 6, (S)-2-(2-methylpyridin-3-yl)-N-(1,2,3,4-tetrahydronaphthalen-1-yl)benzo[d]thiazole-6-carboxamide] | 38 | 7 | – | –
O=C(N[C@H]1CCOc2ccccc21)c1ccc2nc(-c3cccnc3)sc2c1 [Example 9, (S)-N-(chroman-4-yl)-2-(pyridin-3-yl)benzo[d]thiazole-6-carboxamide] | – | – | 81 | 3
Cc1cncc(-c2nc3ccc(C(=O)NCc4ccc(Cl)cc4)cc3s2)c1 [Example 31, N-(4-chlorobenzyl)-2-(5-methylpyridin-3-yl)benzo[d]thiazole-6-carboxamide] | 76 | – | – | –
Cc1cncc(-c2nc3ccc(C(=O)NCc4ccc(F)cc4)cc3s2)c1 [Example 32, N-(4-fluorobenzyl)-2-(5-methylpyridin-3-yl)benzo[d]thiazole-6-carboxamide] | 99 | 18 | – | –
COc1ccc(CNC(=O)c2ccc3nc(-c4cncc(C)c4)sc3c2)cc1 [Example 33, N-(4-methoxybenzyl)-2-(5-methylpyridin-3-yl)benzo[d]thiazole-6-carboxamide] | 82 | – | – | –
Cc1cncc(-c2nc3ccc(C(=O)NCc4cccc(F)c4)cc3s2)c1 [Example 35, N-(3-fluorobenzyl)-2-(5-methylpyridin-3-yl)benzo[d]thiazole-6-carboxamide] | 36 | – | – | –
Cc1cncc(-c2nc3ccc(C(=O)N[C@H]4CCc5ccccc54)cc3s2)c1 [Example 37, (S)-N-(2,3-dihydro-1H-inden-1-yl)-2-(5-methylpyridin-3-yl)benzo[d]thiazole-6-carboxamide] | 57 | – | – | –
Cc1cncc(-c2nc3ccc(C(=O)N[C@@H]4CCc5ccccc54)cc3s2)c1 [Example 38, (R)-N-(2,3-dihydro-1H-inden-1-yl)-2-(5-methylpyridin-3-yl)benzo[d]thiazole-6-carboxamide] | 32 | – | – | –
Cc1cncc(-c2nc3ccc(C(=O)N[C@@H]4c5ccccc5C[C@@H]4O)cc3s2)c1 [Example 39, N-((1R,2S)-2-hydroxy-2,3-dihydro-1H-inden-1-yl)-2-(5-methylpyridin-3-yl)benzo[d]thiazole-6-carboxamide] | 35 | – | – | –
Cc1cncc(-c2nc3ccc(C(=O)NC4CCCC4)cc3s2)c1 [Example 43, N-cyclopentyl-2-(5-methylpyridin-3-yl)benzo[d]thiazole-6-carboxamide] | 68 | – | – | –
Cc1cncc(-c2nc3ccc(C(=O)NC4CCOCC4)cc3s2)c1 [Example 46, 2-(5-methylpyridin-3-yl)-N-(tetrahydro-2H-pyran-4-yl)benzo[d]thiazole-6-carboxamide] | 71 | – | – | –
Cc1ccncc1-c1nc2ccc(C(=O)N[C@H]3CCCc4ccccc43)cc2s1 [Example 50, (S)-2-(4-methylpyridin-3-yl)-N-(1,2,3,4-tetrahydronaphthalen-1-yl)benzo[d]thiazole-6-carboxamide] | 58 | 11 | 51 | –
Cc1ccncc1-c1nc2ccc(C(=O)N[C@H]3CCOc4ccccc43)cc2s1 [Example 51, (S)-N-(chroman-4-yl)-2-(4-methylpyridin-3-yl)benzo[d]thiazole-6-carboxamide] | 112 | -15 | 87 | –
O=C(N[C@H]1CCOc2ccccc21)c1ccc2nc(-c3cncc(Cl)c3)sc2c1 [Example 53, (S)-2-(5-chloropyridin-3-yl)-N-(chroman-4-yl)benzo[d]thiazole-6-carboxamide] | 46 | – | – | –
CCN1CCC(c2nc3c(C)cc(C(=O)N[C@H]4CCOc5ccccc54)cc3s2)CC1 [Example 187, (S)-N-(chroman-4-yl)-2-(1-ethylpiperidin-4-yl)-4-methylbenzo[d]thiazole-6-carboxamide] | – | – | 31 | 9
CCN1CCN(c2nc3c(C)cc(C(=O)N[C@H]4CCOc5ccccc54)cc3s2)CC1 [Example 212, (S)-N-(chroman-4-yl)-2-(4-ethylpiperazin-1-yl)-4-methylbenzo[d]thiazole-6-carboxamide] | – | – | 30 | −3
CCN1CCN(c2nc3cc(C)c(C(=O)N[C@H]4CCOc5ccccc54)cc3s2)CC1 [Example 216, (S)-N-(chroman-4-yl)-2-(4-ethylpiperazin-1-yl)-5-methylbenzo[d]thiazole-6-carboxamide] | – | -5 | 88 | −2
CCN1CCN(c2nc3ccc(C(=O)N[C@H]4CCOc5ccccc54)c(C)c3s2)CC1 [Example 220, (S)-N-(chroman-4-yl)-2-(4-ethylpiperazin-1-yl)-7-methylbenzo[d]thiazole-6-carboxamide] | – | – | 36 | 0
CCN1CC2CCC(C1)N2c1nc2ccc(S(=O)(=O)NC3CCC(F)(F)CC3)cc2s1 [Example 290, N-(4,4-difluorocyclohexyl)-2-(3-ethyl-3,8-diazabicyclo[3.2.1]octan-8-yl)benzo[d]thiazole-6-sulfonamide] | – | 16 | 47 | 11
